Data taken from ChEMBL document CHEMBL4627383, “Optimization of 2-(1H-imidazo-2-yl)piperazines series of Trypanosoma brucei growth inhibitors as potential treatment for the second stage of HAT” (Bioorg Med Chem Lett, 2020).
Calls of active or inactive are those of the source. No cut-off for these calls is given here.

Legend:
Trypanosoma brucei [1] = assay: Antitrypanosomal activity against Trypanosoma brucei assessed as parasite growth inhibition in presence of 10% FBS; type: functional, organism-based
HeLa = assay: (§1) Cytotoxicity against human HeLa cells assessed as reduction in cell viability; type: cell-based; conditions: hela
HUVEC = assay: (§2) Cytotoxicity against HUVEC assessed as reduction in cell viability; type: cell-based; conditions: human
Trypanosoma brucei [2] = assay: Antitrypanosomal activity against Trypanosoma brucei assessed as parasite growth inhibition in presence of 50% mouse serum; type: functional, organism-based
[3] = Half life in human hepatocytes; type: ADME, cell-based, Hepatocyte
[4] = Half life in mouse hepatocytes; type: ADME, cell-based, Hepatocyte
[5] = Protein binding in mouse plasma assessed as unbound fraction; type: ADME, cell-free
[6] = Oral bioavailability in C57BL6 mouse at 30 mg/kg; type: ADME, organism-based; conditions: in vivo
[7] = Cmax in C57BL6 mouse at 30 mg/kg, ip; type: ADME, organism-based; set-up: dose 30 mg/kg, route intraperitoneal; conditions: in vivo
[8] = as §1; type: cell-based; conditions: HeLa cells
[9] = as §2; type: cell-based; conditions: human
[10] = Permeability in porcine brain endothelial cells/rat astrocytes model system; type: ADME, cell-based; conditions: read-out: permeability
[11] = tested on: Trypanosoma brucei rhodesiense; assay: […] activity against Trypanosoma brucei rhodesiense assessed as reduction in parasite viability after 2 hrs by time kill assay; type: functional, organism-based

| Structure (SMILES) | EC50 (Trypanosoma brucei [1]) [nM] | other results |
| --- | --- | --- |
| COc1ccc2nc(C(F)(F)F)n(CC(=O)N3CCCCC3c3ncc(-c4cc5ccccc5nc4OC)[nH]3)c2c1 (stereo unspecified) | 73 | – |
| COc1nc2ccccc2cc1-c1cnc([C@@H]2CN(CC3CCOC3)CCN2C(=O)n2c(C)nc3cncnc32)[nH]1 (stereo partly specified) | 384 | – |
| COc1ccc2nc(C(F)(F)F)n(CC(=O)N3CC[C@H](NCC4CCOC4)C[C@H]3c3ncc(-c4cc5ccccc5nc4OC)[nH]3)c2c1 (stereo partly specified) | 17 | – |
| COc1ccc2[nH]c(C)c(CC(=O)N3CCN(CC4CCOC4)CC3c3ncc(-c4ccc5ccccc5c4)[nH]3)c2c1 (stereo unspecified) | – | Activity (HeLa): Non-Toxic; Activity (HUVEC): Non-Toxic |
| COc1ccc2nc(C(F)(F)F)n(C(=O)N3CCN(Cc4nccs4)C[C@H]3c3ncc(-c4cc5ccccc5nc4OC)[nH]3)c2c1 | 2 | – |
| COc1ccc2[nH]c(C)c(C(=O)N3CCN(CC4CCOC4)C[C@H]3c3ncc(-c4cc5ccccc5nc4OC)[nH]3)c2c1 (mixture of isomers) | 23 | – |
| COc1ccc2nc(C(F)(F)F)n(CC(=O)N3CCN(CC4CCOC4)CCC3c3ncc(-c4cc5ccccc5nc4OC)[nH]3)c2c1 (stereo unspecified) | 51 | – |
| COc1ccc2nc(C(F)(F)F)n(CC(=O)N3CC[C@@H](N(C)C)C[C@H]3c3ncc(-c4cc5ccccc5nc4OC)[nH]3)c2c1 | 659 | – |

The next lines start with results.

| EC50 (Trypanosoma brucei [1]) [nM] | Structure (SMILES) | other results |
| --- | --- | --- |
| 180 | COc1ccc2nc(C(F)(F)F)n(C(=O)N3CCN(C4CCN(C)CC4)C[C@H]3c3ncc(-c4cc5ccccc5nc4OC)[nH]3)c2c1 | – |
| 32 | COc1ccc2nc(C)n(C(=O)N3CCN(CC4CCOC4)C[C@H]3c3ncc(-c4cc5ccccc5nc4OC)[nH]3)c2c1 (stereo partly specified) | – |
| 355 | COc1ccc2nc(C(F)(F)F)n(CC(=O)N3CCS(=O)(=O)CC3c3ncc(-c4cc5ccccc5nc4OC)[nH]3)c2c1 (stereo unspecified) | – |
| 9 | COc1ccc2nc(C(F)(F)F)n(C(=O)N3CCN(CC4CCOC4)C[C@H]3c3ncc(-c4cc5ccccc5nc4OC)[nH]3)c2c1 (stereo partly specified) | – |
| 7 | COc1ccc2nc(C(F)(F)F)n(CC(=O)N3CC[C@H](NC4CCOC4)C[C@H]3c3ncc(-c4cc5ccccc5nc4OC)[nH]3)c2c1 (stereo partly specified) | EC50 (Trypanosoma brucei [2]): 232 nM; half-life [3]: 3.1 h; half-life [4]: 4 h; fraction unbound [5]: 0.047; bioavailability [6]: 103%; Cmax [7]: 5 µM; CC50 [8]: 7490 nM; CC50 [9]: 3680 nM |
| 20 | COc1nc2ccccc2cc1-c1cnc([C@@H]2CN(CC3CCOC3)CCN2C(=O)n2c(C(F)(F)F)nc3ccccc32)[nH]1 (stereo partly specified) | EC50 (Trypanosoma brucei [2]): 850 nM; Papp [10]: 8.6 ×10⁻⁶ cm/s; half-life [3]: 2.6 h; half-life [4]: 0.8 h; Activity [11]: Active; fraction unbound [5]: 0.0204; bioavailability [6]: 133%; Cmax [7]: 6.9 µM |
| 286 | COc1ccc2nc(C(F)(F)F)n(CC(=O)N3CCOCC3c3ncc(-c4cc5ccccc5nc4OC)[nH]3)c2c1 (stereo unspecified) | – |
| 163 | COc1nc2ccccc2cc1-c1cnc([C@@H]2CN(CC3CCOC3)CCN2C(=O)n2c(C)nc3ccccc32)[nH]1 (stereo partly specified) | – |
| 11 | COc1ccc2nc(C(F)(F)F)n(CC(=O)N3C[C@H](NC4CCOC4)CC[C@H]3c3ncc(-c4cc5ccccc5nc4OC)[nH]3)c2c1 (stereo partly specified) | – |
| 98 | COc1ccc2nc(C(F)(F)F)n(CC(=O)N3CC[C@H](N(C)C)C[C@H]3c3ncc(-c4cc5ccccc5nc4OC)[nH]3)c2c1 | – |
| 6 | COc1ccc2nc(C(F)(F)F)n(C(=O)N3CCN(Cc4cnccn4)C[C@H]3c3ncc(-c4cc5ccccc5nc4OC)[nH]3)c2c1 | – |
